Source: ChEMBL document CHEMBL5154940, “Effect of Chiral Purity on Adjuvanticity of Archaeol-Based Glycolipids” (J Med Chem, 2022)
Calls of active or inactive are those of the source. No cut-off for these calls is given here.

Assays:
Mus musculus [1] = species on record: Mus musculus; assay: Immuno-adjuvant activity in C57BL/6NCrl mouse assessed as increase in anti-ova total IgG level in serum at 1 mg in presence of 1 ug ovalbumin and measured 20 days post immunization by ELISA; format: functional, organism-based; details: time 20.0 day
[2] = (§1) Cytotoxicity against mouse CD8-positive T cells in Ova- immunized C57BL/6NCrl mouse assessed as reduction in cell viability at 1 mg administrated on day 0 and as booster dose on day 21 followed by injection of cells to immunized mouse on day 27 in presence of 1 ug ovalbumin and measured on day 28 by flow cytometry analysis; format: toxicity, cell-based; details: 672 h, time 28 day
Mus musculus [3] = species on record: Mus musculus; assay: Immuno-adjuvant activity in C57BL/6NCrl mouse assessed as increase in IFN-gamma spot forming cells measured per 10^6 splenocytes at 0.3 mg in presence of 10 ug ovalbumin incubated for 20 hrs with SIINFEKL peptide stimulant and measured on day 28 by AEC chromogen based ELISPOT analysis; format: functional
Mus musculus [4] = species on record: Mus musculus; assay: Immuno-adjuvant activity in C57BL/6NCrl mouse assessed as increase in IFN-gamma spot forming cells measured per 10^6 splenocytes at 1 mg in presence of 1 ug ovalbumin incubated for 20 hrs with SIINFEKL peptide stimulant and measured on day 28 by AEC chromogen based ELISPOT analysis; format: functional
[5] = as §1, with “of 10” for “of 1”; format: toxicity, cell-based; details: 672 h, time 28 day
Mus musculus [6] = assay: Immuno-adjuvant activity in C57BL/6NCrl mouse assessed as increase in anti-ova total IgG level in serum at 0.3 to 1 mg administered on day 0 and as booster dose on day 21 in presence of 1 ug ovalbumin measured on day 28 by ELISA; format: functional, organism-based; details: dose 0.3-1 mg, time 28.0 day
[7] = as §1, with “at 0.3” for “at 1”, “of 10” for “of 1”; format: toxicity, cell-based; details: 672 h, time 28 day
Mus musculus [8] = species on record: Mus musculus; assay: Immuno-adjuvant activity in C57BL/6NCrl mouse assessed as increase in anti-ova total IgG level in serum at 0.3 to 1 mg in presence of 10 ug ovalbumin and measured 20 days post immunization by ELISA; format: functional, organism-based; details: dose 0.3-1 mg, time 20.0 day
Mus musculus [9] = species on record: Mus musculus; assay: Immuno-adjuvant activity in C57BL/6NCrl mouse assessed as increase in IFN-gamma spot forming cells measured per 10^6 splenocytes at 1 mg in presence of 10 ug ovalbumin incubated for 20 hrs with SIINFEKL peptide stimulant and measured on day 28 by AEC chromogen based ELISPOT analysis; format: functional
Mus musculus [10] = assay: Immuno-adjuvant activity in C57BL/6NCrl mouse assessed as increase in anti-ova total IgG level in serum at 0.3 to 1 mg administered on day 0 and as booster dose on day 21 in presence of 10 ug ovalbumin measured on day 28 by ELISA; format: functional, organism-based; details: dose 0.3-1 mg, time 28.0 day

Compound	Activity (Mus musculus [1])	Activity [2]	Activity (Mus musculus [3])	Activity (Mus musculus [4])	Activity [5]	Activity (Mus musculus [6])	Activity [7]	Activity (Mus musculus [8])	Activity (Mus musculus [9])	Activity (Mus musculus [10])
CC(C)CCC[C@@H](C)CCC[C@@H](C)CCC[C@@H](C)CCOC[C@@H](CO[C@@H]1O[C@H](CO)[C@@H](O[C@@H]2O[C@H](COS(=O)(=O)[O-])[C@H](O)[C@H](O)[C@H]2O)[C@H](O)[C@H]1O)OCC[C@H](C)CCC[C@H](C)CCC[C@H](C)CCCC(C)C.[Na+]	Active	Toxic	6	6	Toxic	Active	Toxic	Active	40	Active
CC(C)CCCC(C)CCCC(C)CCCC(C)CCOCC(CO[C@@H]1O[C@H](CO)[C@@H](O[C@@H]2O[C@H](COS(=O)(=O)[O-])[C@H](O)[C@H](O)[C@H]2O)[C@H](O)[C@H]1O)OCCC(C)CCCC(C)CCCC(C)CCCC(C)C.[Na+] (stereo not given in full)	Active	Toxic	6	6	Toxic	Active	Toxic	Active	40	Active
CC(C)CCC[C@@H](C)CCC[C@@H](C)CCC[C@@H](C)CCOC[C@H](CO[C@@H]1O[C@H](CO)[C@@H](O[C@@H]2O[C@H](COS(=O)(=O)[O-])[C@H](O)[C@H](O)[C@H]2O)[C@H](O)[C@H]1O)OCC[C@H](C)CCC[C@H](C)CCC[C@H](C)CCCC(C)C.[Na+]	Active	Toxic	6	6	Toxic	Active	Toxic	Active	40	Active
